Measurements: patent US7572910B2, “Pyridazinone aldose reductase inhibitors” (Pfizer, Inc., priority 2004, dated 2009)

melting point [°C] | Compound
186 to 189 | O=c1ccc(S(=O)(=O)c2oc3ccccc3c2O)n[nH]1 [Example 16, 6-(3-Hydroxy-benzofuran-2-sulfonyl)-2H-pyridazin-3-one]
233 to 235 | Cn1c(S(=O)(=O)c2ccc(=O)[nH]n2)cc2ccccc21 [Example 40, 6-(N-Methylindole-2-sulfonyl)-2H-pyridazin-3-one]
250 | O=c1ccc(S(=O)(=O)c2[nH]c3ccccc3c2Cl)n[nH]1 [Example 36, 6-(3-Chloro-indole-2-sulfonyl)-2H-pyridazin-3-one]
